Legend:
[1] = target: T1, Histone-lysine N-methyltransferase NSD2 (Homo sapiens, UniProt O96028); assay: Inhibition of recombinant human NSD2 (941 to 1240 residues) using unmethylated histone H3 as substrate incubated for 40 mins in the presence of SAM and nucleosomes by AlphaLISA method
T1 sequence (O96028 whole entry): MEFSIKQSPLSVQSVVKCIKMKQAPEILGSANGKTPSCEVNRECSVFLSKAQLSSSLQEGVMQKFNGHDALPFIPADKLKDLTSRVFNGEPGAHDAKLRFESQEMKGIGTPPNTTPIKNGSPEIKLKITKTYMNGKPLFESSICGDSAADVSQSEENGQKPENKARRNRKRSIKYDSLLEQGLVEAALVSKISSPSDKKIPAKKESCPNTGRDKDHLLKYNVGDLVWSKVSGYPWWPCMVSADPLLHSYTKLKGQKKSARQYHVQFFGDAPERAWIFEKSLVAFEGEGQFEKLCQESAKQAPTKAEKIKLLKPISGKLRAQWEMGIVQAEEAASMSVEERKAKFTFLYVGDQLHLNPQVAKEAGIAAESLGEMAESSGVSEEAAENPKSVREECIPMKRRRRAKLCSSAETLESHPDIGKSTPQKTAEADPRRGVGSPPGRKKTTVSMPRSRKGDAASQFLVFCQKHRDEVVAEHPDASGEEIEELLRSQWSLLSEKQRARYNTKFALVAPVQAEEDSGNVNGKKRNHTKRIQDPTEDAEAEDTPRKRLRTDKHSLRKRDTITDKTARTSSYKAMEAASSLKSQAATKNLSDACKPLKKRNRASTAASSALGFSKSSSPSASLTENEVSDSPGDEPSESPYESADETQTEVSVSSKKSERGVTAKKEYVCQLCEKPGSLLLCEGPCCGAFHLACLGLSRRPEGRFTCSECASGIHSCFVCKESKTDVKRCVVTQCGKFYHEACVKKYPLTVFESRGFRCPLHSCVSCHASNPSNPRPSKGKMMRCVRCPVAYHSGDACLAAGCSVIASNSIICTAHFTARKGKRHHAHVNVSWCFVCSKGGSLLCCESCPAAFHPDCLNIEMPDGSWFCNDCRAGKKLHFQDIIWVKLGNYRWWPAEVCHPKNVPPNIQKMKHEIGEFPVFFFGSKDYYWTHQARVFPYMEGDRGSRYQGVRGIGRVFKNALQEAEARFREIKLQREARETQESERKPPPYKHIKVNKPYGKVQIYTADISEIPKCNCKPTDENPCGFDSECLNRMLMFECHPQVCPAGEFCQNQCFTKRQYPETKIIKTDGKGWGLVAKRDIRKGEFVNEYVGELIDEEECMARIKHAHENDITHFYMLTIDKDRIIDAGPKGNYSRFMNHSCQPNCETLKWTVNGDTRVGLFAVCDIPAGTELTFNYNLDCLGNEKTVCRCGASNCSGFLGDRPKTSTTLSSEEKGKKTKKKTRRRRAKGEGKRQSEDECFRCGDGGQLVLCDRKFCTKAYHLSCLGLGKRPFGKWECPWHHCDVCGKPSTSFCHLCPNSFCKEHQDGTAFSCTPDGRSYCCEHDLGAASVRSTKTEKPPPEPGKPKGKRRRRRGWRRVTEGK

[2] = target: T2, Histone-lysine N-methyltransferase EHMT2 (Homo sapiens) (UniProt Q96KQ7); assay: Inhibition of G9a (unknown origin) at 10 uM by AlphaLISA assay relative to control
T2 sequence (whole entry): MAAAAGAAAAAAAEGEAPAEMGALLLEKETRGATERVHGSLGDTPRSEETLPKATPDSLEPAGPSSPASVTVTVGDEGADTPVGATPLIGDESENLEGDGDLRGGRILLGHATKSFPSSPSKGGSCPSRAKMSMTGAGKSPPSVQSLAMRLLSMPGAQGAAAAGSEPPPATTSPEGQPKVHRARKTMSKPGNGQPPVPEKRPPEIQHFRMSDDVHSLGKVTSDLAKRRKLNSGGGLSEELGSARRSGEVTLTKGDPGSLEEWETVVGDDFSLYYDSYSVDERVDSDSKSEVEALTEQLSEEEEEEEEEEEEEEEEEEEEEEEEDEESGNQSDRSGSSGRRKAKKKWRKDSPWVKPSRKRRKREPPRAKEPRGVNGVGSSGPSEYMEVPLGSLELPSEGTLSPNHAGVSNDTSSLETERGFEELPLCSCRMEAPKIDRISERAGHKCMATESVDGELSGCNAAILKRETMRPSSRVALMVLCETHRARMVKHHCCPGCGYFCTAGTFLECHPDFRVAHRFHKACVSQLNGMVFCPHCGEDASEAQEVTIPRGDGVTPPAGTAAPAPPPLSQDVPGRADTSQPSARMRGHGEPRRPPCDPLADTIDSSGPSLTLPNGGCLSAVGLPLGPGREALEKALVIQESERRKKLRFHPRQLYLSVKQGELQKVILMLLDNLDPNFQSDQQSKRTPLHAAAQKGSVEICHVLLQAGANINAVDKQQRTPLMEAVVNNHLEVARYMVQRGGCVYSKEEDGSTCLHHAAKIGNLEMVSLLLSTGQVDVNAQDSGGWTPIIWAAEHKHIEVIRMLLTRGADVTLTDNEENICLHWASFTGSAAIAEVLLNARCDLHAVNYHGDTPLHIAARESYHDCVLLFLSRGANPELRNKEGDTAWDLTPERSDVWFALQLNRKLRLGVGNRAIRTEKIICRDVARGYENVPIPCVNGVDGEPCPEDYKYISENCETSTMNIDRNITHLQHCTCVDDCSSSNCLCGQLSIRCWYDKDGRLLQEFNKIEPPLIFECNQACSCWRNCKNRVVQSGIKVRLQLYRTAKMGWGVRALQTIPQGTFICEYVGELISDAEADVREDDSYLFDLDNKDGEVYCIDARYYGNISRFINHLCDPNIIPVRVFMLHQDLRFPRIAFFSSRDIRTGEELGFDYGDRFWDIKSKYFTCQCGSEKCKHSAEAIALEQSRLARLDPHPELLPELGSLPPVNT

[3] = target: T2, Histone-lysine N-methyltransferase EHMT2 (Homo sapiens); assay: Inhibition of G9a (unknown origin) at 1 uM by AlphaLISA assay relative to control

Row | Compound | IC50 [1] | inhibition [2] | inhibition [3]
1 | COc1cc2nc(C#N)nc(Nc3ccc(N4CCN(C)CC4)cc3)c2cc1OC | 3150 nM | – | –
2 | COc1cc2nc(C#N)nc(NC3CCN(C)CC3)c2cc1OC | 204 nM | – | –
3 | CC#CC(=O)NC12CC(NC3=C(Cl)C(=O)c4ncccc4C3=O)(C1)C2 | 243 nM | – | –
4 | COc1cc2nc(N3CCCCC3)nc(NC3CCN(Cc4ccccc4)CC3)c2cc1OC | > 5000 nM | 99.2% | 98%
5 | COc1ccc2c(NC3CCN(C(C)C)CC3)nc(C#N)nc2c1 | 271 nM | – | –
6 | COc1cc2nc(C#N)nc(NC3CCN(C4CCCCC4)CC3)c2cc1OC | 1200 nM | – | –
7 | CCN1CCC(Nc2nc(C#N)nc3cc(OC)c(OC)cc23)CC1 | 1510 nM | – | –
8 | COc1cc2nc(CN)nc(NC3CCN(Cc4ccccc4)CC3)c2cc1OC | 1410 nM | 95.4% | 34.8%
9 | COc1cc2c(NC3CCN(C(C)C)CC3)nc(C#N)nc2cc1OCCCN1CCC(F)(F)C1 | 38 nM | – | –
10 | COc1ccc2nc(C#N)nc(NC3CCN(C(C)C)CC3)c2c1 | 85 nM | – | –
11 | COc1cc2nc(C#N)nc(NC3CCCCC3)c2cc1OC | 4570 nM | – | –
12 | COCCOc1cc2nc(C#N)nc(NC3CCN(C(C)C)CC3)c2cc1OC | 29 nM | – | –
13 | COc1cc2nc(C#N)nc(NC3CCN(C(C)=O)CC3)c2cc1OC | 2780 nM | – | –
14 | CC(C)N1CCC(Nc2nc(C#N)nc3ccccc23)CC1 | 377 nM | – | –
15 | COc1cc2nc(N3CCCN(C)CC3)nc(NC3CCN(Cc4ccccc4)CC3)c2cc1OC | 1730 nM | 98.8% | 98.3%
16 | COc1cc2nc(C#N)nc(N(C)C3CCN(C)CC3)c2cc1OC | 3760 nM | – | –
17 | CCCN1CCC(Nc2nc(C#N)nc3cc(OC)c(OC)cc23)CC1 | 569 nM | – | –
18 | COc1cc2nc(C#N)nc(N3CCN(C)CC3)c2cc1OC | 4300 nM | – | –

Row | Compound | IC50 [1] | inhibition [2] | inhibition [3]
19 | COc1cc2ncnc(NC3CCN(Cc4ccccc4)CC3)c2cc1OC | 1450 nM | 82.4% | 27.4%
20 | COc1cc2nc(C#N)nc(OC3CCN(C)CC3)c2cc1OC | 2520 nM | – | –
21 | COc1cc2nc(N3CCOCC3)nc(NC3CCN(Cc4ccccc4)CC3)c2cc1OC | > 5000 nM | 98.5% | 98.7%
22 | COc1cc2c(NC3CCN(C(C)C)CC3)nc(C#N)nc2cc1OCCN1CCOCC1 | 44 nM | – | –
23 | COc1cc2c(NC3CCN(C(C)C)CC3)nc(C#N)nc2cc1OCc1ccccc1 | 49 nM | – | –
24 | COc1cc2nc(N)nc(NC3CCN(Cc4ccccc4)CC3)c2cc1OC | 1550 nM | 99.6% | 99.1%
25 | COc1cc2nc(C#N)nc(NC3CCNCC3)c2cc1OC | 1410 nM | – | –
26 | COc1cc2nc(C#N)nc(NC3CCN(C(=O)OC(C)(C)C)CC3)c2cc1OC | 3330 nM | – | –
27 | COc1cc2nc(N(C)C)nc(NC3CCN(Cc4ccccc4)CC3)c2cc1OC | 1510 nM | 99.1% | 99.6%
28 | COc1cc2nc(C#N)nc(NCC3CCN(C)CC3)c2cc1OC | 2430 nM | – | –
29 | CNc1nc(NC2CCN(Cc3ccccc3)CC2)c2cc(OC)c(OC)cc2n1 | 1510 nM | 99.4% | 99.5%
30 | COc1cc2c(NC3CCN(C(C)C)CC3)nc(C#N)nc2cc1O | 60 nM | – | –
31 | COc1cc2nc(C#N)nc(NC3CCN(C4CC4)CC3)c2cc1OC | 45 nM | – | –
32 | COc1cc2nc(C#N)nc(NC3CCN(Cc4ccccc4)CC3)c2cc1OC | – | 5.6% | 2.8%
33 | COc1cc2c(NC3CCN(C(C)C)CC3)nc(C#N)nc2cc1OCCCN1CCC(F)(F)CC1 | 32 nM | – | –
34 | COc1cc2nc(-c3ccccc3)nc(NC3CCN(Cc4ccccc4)CC3)c2cc1OC | > 5000 nM | 99.2% | 29.9%
35 | COc1cc2nc(C#N)nc(NC3CCOCC3)c2cc1OC | 4900 nM | – | –
36 | COc1cc2nc(C#N)nc(NC3CCCC3)c2cc1OC | > 5000 nM | – | –

From ChEMBL document CHEMBL5614426 (J Med Chem, 2024)
